target: T1, CCR2 (Homo sapiens, UniProt P41597); experiment: CCR2 calcium activity assay on FLIPR Tetra in HEK-Gqi5 cells stably expressing CCR2; format: cell-based
T1 construct: expressed in transfected cells
T1 sequence (P41597 whole entry, species assumed): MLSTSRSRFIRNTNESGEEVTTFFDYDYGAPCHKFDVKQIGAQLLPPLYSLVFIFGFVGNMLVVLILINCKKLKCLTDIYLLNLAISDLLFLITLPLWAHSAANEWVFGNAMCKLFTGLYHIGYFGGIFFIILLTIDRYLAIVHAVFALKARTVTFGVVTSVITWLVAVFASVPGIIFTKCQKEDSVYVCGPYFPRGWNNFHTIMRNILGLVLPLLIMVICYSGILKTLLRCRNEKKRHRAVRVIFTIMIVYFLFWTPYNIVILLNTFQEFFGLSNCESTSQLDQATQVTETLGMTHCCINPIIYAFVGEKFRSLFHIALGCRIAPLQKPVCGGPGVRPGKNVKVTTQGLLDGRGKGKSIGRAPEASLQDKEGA

Molecule	CCR2 % ANTAG	IC50
Cc1cc(NS(=O)(=O)c2ccc3c(c2)c(=O)sn3C)c(NS(=O)(=O)c2cccs2)cc1C [N-{4,5-dimethyl-2-[(2-thienylsulfonyl)amino]phenyl}-1-methyl-3-oxo-1,3-dihydro-2,1-benzisothiazole-5-sulfonamide]	91%	2190 nM
CN(C)c1ccc(NS(=O)(=O)c2ccc3c(c2)c(=O)sn3C)c(NS(=O)(=O)c2cccs2)c1 [N-{4-(dimethylamino)-2-[(2-thienylsulfonyl)amino]phenyl}-1-methyl-3-oxo-1,3-dihydro-2,1-benzisothiazole-5-sulfonamide]	78%	1230 nM
Cn1sc(=O)c2cc(S(=O)(=O)Nc3cc(C(F)(F)F)c(Cl)cc3NS(=O)(=O)c3cccs3)ccc21 [N-{4-chloro-2-[(2-thienylsulfonyl)amino]-5-(trifluoromethyl)phenyl}-1-methyl-3-oxo-1,3-dihydro-2,1-benzisothiazole-5-sulfonamide]	87%	522 nM
Cn1sc(=O)c2cc(S(=O)(=O)Nc3ccc(Cl)cc3NS(=O)(=O)c3cccs3)ccc21 [N-{4-chloro-2-[(2-thienylsulfonyl)amino]phenyl}-1-methyl-3-oxo-1,3-dihydro-2,1-benzisothiazole-5-sulfonamide]	102%	393 nM
Cc1cc(NS(=O)(=O)c2ccc3c(c2)c(=O)sn3C)c(NS(=O)(=O)c2cccs2)cc1Cl [N-{4-chloro-5-methyl-2-[(2-thienylsulfonyl)amino]phenyl}-1-methyl-3-oxo-1,3-dihydro-2,1-benzisothiazole-5-sulfonamide]	75%	311 nM
Cn1sc(=O)c2cc(S(=O)(=O)Nc3ccc(C#N)cc3NS(=O)(=O)c3cccs3)ccc21 [N-{4-cyano-2-[(2-thienylsulfonyl)amino]phenyl}-1-methyl-3-oxo-1,3-dihydro-2,1-benzisothiazole-5-sulfonamide]	31%	–
CC(C)c1ccc(NS(=O)(=O)c2ccc3c(c2)c(=O)sn3C)c(NS(=O)(=O)c2cccs2)c1 [N-{4-isopropyl-2-[(2-thienylsulfonyl)amino]phenyl}-1-methyl-3-oxo-1,3-dihydro-2,1-benzisothiazole-5-sulfonamide]	87%	886 nM
COc1ccc(NS(=O)(=O)c2ccc3c(c2)c(=O)sn3C)c(NS(=O)(=O)c2cccs2)c1 [N-{4-methoxy-2-[(2-thienylsulfonyl)amino]phenyl}-1-methyl-3-oxo-1,3-dihydro-2,1-benzisothiazole-5-sulfonamide]	60%	1300 nM
Cn1sc(=O)c2cc(S(=O)(=O)Nc3cc(Br)ccc3NS(=O)(=O)c3cccs3)ccc21 [N-{5-bromo-2-[(2-thienylsulfonyl)amino]phenyl}-1-methyl-3-oxo-1,3-dihydro-2,1-benzisothiazole-5-sulfonamide]	100%	537 nM
Cn1sc(=O)c2cc(S(=O)(=O)Nc3cc(Cl)ccc3NCc3cccs3)ccc21 [N-{5-chloro-2-[(2-thienylmethyl)amino]phenyl}-1-methyl-3-oxo-1,3-dihydro-2,1-benzisothiazole-5-sulfonamide]	83%	1080 nM
Cn1sc(=O)c2cc(C(=O)Nc3cc(Cl)ccc3NS(=O)(=O)c3cccs3)ccc21 [N-{5-chloro-2-[(2-thienylsulfonyl)amino]phenyl}-1-methyl-3-oxo-1,3-dihydro-2,1-benzisothiazole-5-carboxamide]	99%	–
Cn1sc(=O)c2cc(S(=O)(=O)Nc3cc(Cl)ccc3NS(=O)(=O)c3cccs3)ccc21 [N-{5-chloro-2-[(2-thienylsulfonyl)amino]phenyl}-1-methyl-3-oxo-1,3-dihydro-2,1-benzisothiazole-5-sulfonamide]	98%	234 nM
Cn1sc(=O)c2cc(S(=O)(=O)Nc3cc(Cl)cnc3NS(=O)(=O)c3cccs3)ccc21 [N-{5-chloro-2-[(2-thienylsulfonyl)amino]pyridin-3-yl}-1-methyl-3-oxo-1,3-dihydro-2,1-benzisothiazole-5-sulfonamide]	48%	1010 nM
Cn1sc(=O)c2cc(S(=O)(=O)Nc3cc(Cl)cnc3C(=O)N3CCC(=O)CC3)ccc21 [N-{5-chloro-2-[(4-oxopiperidin-1-yl)carbonyl]pyridin-3-yl}-1-methyl-3-oxo-1,3-dihydro-2,1-benzisothiazole-5-sulfonamide]	58%	–
Cc1cc(NS(=O)(=O)c2cccs2)c(NS(=O)(=O)c2ccc3c(c2)c(=O)sn3C)cc1Cl [N-{5-chloro-4-methyl-2-[(2-thienylsulfonyl)amino]phenyl}-1-methyl-3-oxo-1,3-dihydro-2,1-benzisothiazole-5-sulfonamide]	91%	531 nM
Cn1sc(=O)c2cc(S(=O)(=O)Nc3cc(C#N)ccc3NS(=O)(=O)c3cccs3)ccc21 [N-{5-cyano-2-[(2-thienylsulfonyl)amino]phenyl}-1-methyl-3-oxo-1,3-dihydro-2,1-benzisothiazole-5-sulfonamide]	59%	2720 nM
CCc1ccc(NS(=O)(=O)c2cccs2)c(NS(=O)(=O)c2ccc3c(c2)c(=O)sn3C)c1 [N-{5-ethyl-2-[(2-thienylsulfonyl)amino]phenyl}-1-methyl-3-oxo-1,3-dihydro-2,1-benzisothiazole-5-sulfonamide]	94%	1940 nM
CC(C)c1ccc(NS(=O)(=O)c2cccs2)c(NS(=O)(=O)c2ccc3c(c2)c(=O)sn3C)c1 [N-{5-isopropyl-2-[(2-thienylsulfonyl)amino]phenyl}-1-methyl-3-oxo-1,3-dihydro-2,1-benzisothiazole-5-sulfonamide]	85%	425 nM
COc1ccc(NS(=O)(=O)c2cccs2)c(NS(=O)(=O)c2ccc3c(c2)c(=O)sn3C)c1 [N-{5-methoxy-2-[(2-thienylsulfonyl)amino]phenyl}-1-methyl-3-oxo-1,3-dihydro-2,1-benzisothiazole-5-sulfonamide]	104%	1410 nM
COC(=O)c1ccc(NS(=O)(=O)c2cccs2)c(NS(=O)(=O)c2ccc3c(c2)c(=O)sn3C)c1 [methyl 3-{[(1-methyl-3-oxo-1,3-dihydro-2,1-benzisothiazol-5-yl)sulfonyl]amino}-4-[(2-thienylsulfonyl)amino]benzoate]	76%	2410 nM
COC(=O)c1ccc(NS(=O)(=O)c2ccc3c(c2)c(=O)sn3C)c(NS(=O)(=O)c2cccs2)c1 [methyl 4-{[(1-methyl-3-oxo-1,3-dihydro-2,1-benzisothiazol-5-yl)sulfonyl]amino}-3-[(2-thienylsulfonyl)amino]benzoate]	0%	> 8300 nM
N,N-dimethyl-N-(4-{[(1-methyl-3-oxo-1,3-dihydro-2,1-benzisothiazol-5-yl)carbonyl]amino}benzyl)tetrahydro-2H-pyran-4-aminium	85%	1190 nM
